In assay [1] the test system is Raw 264.7 cells infected with H37Rv-GFP. Briefly: microbe, parasite or virus in culture. The class given is cell-based, M. tuberculosis. To be noted: for MIC50: Mycobacterium tuberculosis, H37RV, 120 h, read-out: QIM (MIC50).
The subject of assay [2] is M. tuberculosis H37Rv expressing the green fluorescent protein (H37Rv-GFP). Briefly: microbe, parasite or virus in culture. The assay is classed as cell-based. The note with it: for MIC50: Mycobacterium tuberculosis, H37RV, 120 h, read-out: QUM (MIC50).

≈ marks a conversion by molar mass, not a printed value. Where only a bound is given, the exact number is not on record here.

In the case of `CC(C)(C)CC(=O)NC1CCN(c2nc3sc(C(=O)Nc4ccc(-c5ccc(F)nc5)cc4)cc3s2)CC1` [Compound 348], the MIC50 in assay [1] was < 1 µM; in assay [2], > 20 µM.
The corresponding values for `COCCN(C)c1nc2sc(C(=O)Nc3ccc(-c4ccc(OC)nc4)cc3)cc2s1` [Compound 265] are < 1 µM and < 1 µM.
In the case of `Cc1nc2cc(NC(=O)c3cc4sc(N5CCC(Cc6ccc(Cl)cc6)CC5)nc4s3)ccc2o1` [Compound 236], the MIC50 in assay [1] is < 1 µM; in assay [2], > 20 µM.
Turning to `COc1ccc(NC(=O)c2cc3sc(N4CCC(C(=O)O)CC4)nc3s2)cc1` [Compound 149], the MIC50 in assay [1] and in assay [2] was 1 to 20 µM (≈ 0.418 to 8.35 µg/mL) in each case.
For the compound `CCCC(=O)Nc1nc2sc(C(=O)Nc3ccc4oc(C)nc4c3)cc2s1` [Compound 243], the MIC50 was < 1 µM in assay [1] and > 20 µM in assay [2].
As to `CN(CCO)c1nc2sc(C(=O)Nc3ccc4oc(CCc5ccc(F)cc5)nc4c3)cc2s1` [Compound 252], the MIC50 in assay [1] is < 1 µM; in assay [2], 1 to 20 µM (≈ 0.497 to 9.93 µg/mL).
Regarding `COC(=O)C1CCN(C(=O)c2cc3nc(N4CCCCC4)sc3s2)CC1` [Compound 24], the results for the MIC50 in assay [1] and in assay [2] were > 20 µM and 1 to 20 µM (≈ 0.394 to 7.87 µg/mL), respectively.
For `O=C(Nc1ccc(-c2ccc(F)cn2)cc1)c1cc2sc(NCC(O)C(F)(F)F)nc2s1` (stereo not shown) [Compound 340], in that order: < 1 µM and 1 to 20 µM (≈ 0.482 to 9.65 µg/mL).
As for `Cc1nc2cc(NC(=O)c3cc4sc(NCCN5CCCCC5)nc4s3)ccc2o1` [Compound 297], the figures for the MIC50 in assay [1] and in assay [2] were 1 to 20 µM (≈ 0.442 to 8.83 µg/mL) and > 20 µM, respectively.
On to `COc1ccc(Cn2cc(F)c(-c3ccc(NC(=O)c4cc5sc(N6CCOCC6)nc5s4)cc3)n2)cc1` [Compound 158], for which the MIC50 was < 1 µM in assay [1] and 1 to 20 µM (≈ 0.55 to 11 µg/mL) in assay [2].
The corresponding values for `Cc1nc2cc(NC(=O)c3cc4sc(N5CC(C(=O)N(C)C)C5)nc4s3)ccc2o1` [Compound 244] are < 1 µM and > 20 µM.
For the compound `Cc1nc2cc(NC(=O)c3cc4sc(N5CCC(CC(=O)N(C)C)CC5)nc4s3)ccc2o1` [Compound 307], the MIC50 in assay [1] and in assay [2] was < 1 µM throughout.
As to `O=C(Nc1ccc(CN2CCN(c3ccc(F)cc3)CC2)cc1)c1cc2sc(N3CCOCC3)nc2s1` [Compound 211], the MIC50 in assay [1] and in assay [2] was < 1 µM each time.
With `CNC(=O)C1CCN(c2nc3sc(C(=O)Nc4ccc5oc(C)nc5c4)cc3s2)CC1` [Compound 212], the MIC50 is < 1 µM in assay [1] and 1 to 20 µM (≈ 0.456 to 9.11 µg/mL) in assay [2].
With `Cc1nc2cc(NC(=O)c3cc4sc(NC5CCOCC5)nc4s3)ccc2o1` [Compound 299], the MIC50 in assay [1] and in assay [2] was < 1 µM in each case.
On to `O=C(Nc1ccc2[nH]cnc2c1)c1cc2sc(N3CCOCC3)nc2s1` [Compound 113], for which the MIC50 in assay [1] and in assay [2] was > 20 µM throughout.
`Cc1ccc(-c2ccc(NC(=O)c3cc4sc(N5CCC(C(=O)N(C)C)CC5)nc4s3)cc2)cn1.Cl` [Compound 208]: in assay [1], the “QIM (MIC50, uM)” value is “+++ (+++ indicates <1 uM)”. The “QUM (MIC50, uM)” value in assay [2] is listed as “+++ (+++ indicates <1 uM)”.
As to `Cc1nc2cc(NC(=O)c3cc4sc(N5CC[C@@H](C(=O)N(C)C)C5)nc4s3)ccc2o1` [Compound 223], the MIC50 in assay [1] and in assay [2] was 1 to 20 µM (≈ 0.456 to 9.11 µg/mL) throughout.
Consider `Cc1nc2cc(NC(=O)c3cc4sc(NCCC5CCOCC5)nc4s3)ccc2o1` [Compound 333], for which the MIC50 in assay [1] is < 1 µM; in assay [2] it was 1 to 20 µM (≈ 0.443 to 8.85 µg/mL).
For `Cc1ccc(-c2ccc(NC(=O)c3cc4sc(N5CCC(C(=O)N(C)C)CC5)nc4s3)cc2)nc1` [Compound 217], in that order: < 1 µM and 1 to 20 µM (≈ 0.506 to 10.1 µg/mL).
Take `COc1ccc(-c2ccc(NC(=O)c3cc4sc(N5CCC(C(=O)N(C)C)CC5)nc4s3)cc2)cn1` [Compound 213]: the MIC50 in assay [1] and in assay [2] was < 1 µM in each case.
For `Cc1nc2cc(NC(=O)c3cc4sc(N5CC[C@@H](C(=O)Nc6ccc7nc(C)oc7c6)C5)nc4s3)ccc2o1` [Compound 222], the MIC50 is < 1 µM in assay [1] and 1 to 20 µM (≈ 0.559 to 11.2 µg/mL) in assay [2].
With `COCCNc1nc2sc(C(=O)Nc3ccc4oc(C)nc4c3)cc2s1` [Compound 266], the MIC50 in assay [1] and in assay [2] was < 1 µM in each case.
`O=C(Nc1ccc(Oc2ccc(Cl)cc2)cc1)c1cc2sc(N3CCNCC3)nc2s1` [Compound 345]: the MIC50 is < 1 µM in assay [1] and 1 to 20 µM (≈ 0.471 to 9.42 µg/mL) in assay [2].
`C#CCOc1ccc(-c2ccc(NC(=O)c3cc4sc(N(C)CCOC)nc4s3)cc2)cc1` [Compound 358]: the MIC50 in assay [1] and in assay [2] was < 1 µM throughout.
For `CN1CCN(CCNc2nc3sc(C(=O)Nc4ccc(-c5ccc(F)cn5)cc4)cc3s2)CC1` [Compound 325], the MIC50 was < 1 µM in assay [1] and 1 to 20 µM (≈ 0.497 to 9.93 µg/mL) in assay [2].
Take `Cc1nc2cc(NC(=O)c3cc4sc(N5CCC(NC(=O)CC(C)(C)C)CC5)nc4s3)ccc2o1` [Compound 305]: the MIC50 in assay [1] was < 1 µM; in assay [2], > 20 µM.
`CN(CC(O)C(F)(F)F)c1nc2sc(C(=O)Nc3ccc(F)cc3)cc2s1` (stereo not shown) [Compound 316]: the MIC50 is < 1 µM in assay [1] and 1 to 20 µM (≈ 0.419 to 8.39 µg/mL) in assay [2].
For `COc1ccc(NC(=O)c2cc3sc(N4CCC(O)C4)nc3s2)cc1` (stereo not shown) [Compound 130], in that order: < 1 µM and 1 to 20 µM (≈ 0.375 to 7.51 µg/mL).
With `CN(C)C(=O)CC1CCN(c2nc3sc(C(=O)Nc4ccc(-c5ccc(F)nc5)cc4)cc3s2)C1` (stereo not shown) [Compound 350], the MIC50 in assay [1] and in assay [2] was < 1 µM in each case.
As for `Cc1nc2cc(NC(=O)c3cc4sc(N5CCC(CC(=O)N(C)C)C5)nc4s3)ccc2o1` (stereo not shown) [Compound 308], the MIC50 in assay [1] and in assay [2] was < 1 µM throughout.
`N#Cc1ccc(NC(=O)c2cc3sc(N4CCC(O)CC4)nc3s2)cc1` [Compound 133]: the MIC50 in assay [1] was < 1 µM; in assay [2], 1 to 20 µM (≈ 0.384 to 7.69 µg/mL).
With `COC(=O)c1ccc(NC(=O)c2cc3nc(N4CCCCC4)sc3s2)cc1` [Compound 13], the MIC50 was < 1 µM in assay [1] and 1 to 20 µM (≈ 0.402 to 8.03 µg/mL) in assay [2].
Turning to `COc1ccc(NC(=O)c2cc3nc(N4CCCCC4)sc3s2)cc1` [Compound 2], the MIC50 in assay [1] and in assay [2] was > 20 µM throughout.
Consider `O=C(Nc1ccc(F)cc1)c1cc2sc(N3CCC(C(=O)c4ccc(Cl)cc4)CC3)nc2s1` [Compound 241], for which the MIC50 in assay [1] is < 1 µM; in assay [2] it was > 20 µM.
Consider `CC(C)(C)CC(=O)NC1CCN(c2nc3sc(C(=O)Nc4ccc(F)cc4)cc3s2)CC1` [Compound 304], for which the MIC50 in assay [1] was < 1 µM; in assay [2] it was > 20 µM.
Turning to `CN(CC(O)C(F)(F)F)c1nc2sc(C(=O)Nc3ccc(-c4ccc(F)nc4)cc3)cc2s1` (stereo not shown) [Compound 339], the MIC50 in assay [1] and in assay [2] was < 1 µM throughout.
On to `CN(C)c1nc2sc(C(=O)Nc3ccc4oc(-c5ccc(F)cc5)nc4c3)cc2s1` [Compound 210], for which the MIC50 in assay [1] and in assay [2] was > 20 µM throughout.
Turning to `O=C(Nc1ccc(-c2ccc(F)nc2)cc1)c1cc2sc(NCCN3CCOCC3)nc2s1` [Compound 288], the MIC50 in assay [1] and in assay [2] was < 1 µM throughout.
As to `CN(CCO)c1nc2sc(C(=O)Nc3ccc(-c4ccn(C)n4)cc3)cc2s1` [Compound 275], the MIC50 in assay [1] was < 1 µM; in assay [2] it was 1 to 20 µM (≈ 0.414 to 8.27 µg/mL).
Consider `O=C(Nc1ccc(-c2ccc(F)nc2)cc1)c1cc2sc(NCC(O)C(F)(F)F)nc2s1` (stereo not shown) [Compound 341], for which the MIC50 in assay [1] was < 1 µM; in assay [2], 1 to 20 µM (≈ 0.482 to 9.65 µg/mL).
For `O=C(Nc1ccc(F)cc1)c1cc2sc(NCCCN3CCOCC3)nc2s1` [Compound 327], in that order: 1 to 20 µM (≈ 0.421 to 8.41 µg/mL) and 1 to 20 µM (≈ 0.421 to 8.41 µg/mL).
As for `Cc1nc2cc(NC(=O)c3cc4sc(N5CCOC(CO)C5)nc4s3)ccc2o1` (stereo not shown) [Compound 152], the MIC50 in assay [1] and in assay [2] was 1 to 20 µM (≈ 0.431 to 8.61 µg/mL) in each case.
Consider `O=C(Nc1ccc(F)cc1)c1cc2sc(N3CCC(C(O)c4ccc(Cl)cc4)CC3)nc2s1` (stereo not shown) [Compound 247], for which the values for the MIC50 in assay [1] and in assay [2] were < 1 µM and 1 to 20 µM (≈ 0.502 to 10 µg/mL), respectively.
For the compound `Cc1nc2cc(NC(=O)c3cc4sc(NCCO)nc4s3)ccc2o1` [Compound 267], the MIC50 in assay [1] and in assay [2] was 1 to 20 µM (≈ 0.374 to 7.49 µg/mL) in each case.
In the case of `Cc1ccc(-c2ccc(NC(=O)c3cc4sc(NCCN5CCOCC5)nc4s3)cc2)nc1` [Compound 260], the MIC50 in assay [1] was < 1 µM; in assay [2], 1 to 20 µM (≈ 0.48 to 9.59 µg/mL).
With `CCN(CCOC)c1nc2sc(C(=O)Nc3ccc4oc(C)nc4c3)cc2s1` [Compound 269], the MIC50 in assay [1] and in assay [2] was > 20 µM throughout.
As for `Cc1nc2cc(NC(=O)c3cc4sc(N5CC[C@H](C(=O)N(C)C)C5)nc4s3)ccc2o1` [Compound 215], the MIC50 in assay [1] and in assay [2] was < 1 µM in each case.
For the compound `CN1CCC(Nc2nc3sc(C(=O)Nc4ccc(F)cc4)cc3s2)CC1` [Compound 313], the MIC50 was 1 to 20 µM (≈ 0.391 to 7.81 µg/mL) in assay [1] and > 20 µM in assay [2].
Consider `Cc1nc2cc(NC(=O)c3sc4nc(N5CCOCC5)sc4c3N)ccc2o1` [Compound 230], for which the MIC50 in assay [1] and in assay [2] was > 20 µM in each case.
With `O=C(Nc1ccc(F)cc1)c1cc2sc(OC3CCCCC3)nc2s1` [Compound 334], the MIC50 in assay [1] was < 1 µM; in assay [2], 1 to 20 µM (≈ 0.376 to 7.53 µg/mL).
Consider `CN(C)C(=O)C1CCN(c2nc3sc(C(=O)Nc4ccc5oc(Cc6ccc(F)cc6)nc5c4)cc3s2)CC1` [Compound 219], for which the MIC50 in assay [1] was < 1 µM; in assay [2] it was 1 to 20 µM (≈ 0.564 to 11.3 µg/mL).
The corresponding values for `O=C(Nc1ccc(F)cc1)c1cc2sc(N3CCC(Oc4ccc(Cl)cc4)CC3)nc2s1` [Compound 235] are < 1 µM and > 20 µM.
Take `O=C(O)c1ccc(NC(=O)c2cc3nc(N4CCCCC4)sc3s2)cc1` [Compound 19]: the MIC50 was > 20 µM in assay [1] and 1 to 20 µM (≈ 0.387 to 7.75 µg/mL) in assay [2].
For `O=C(Nc1ccc(F)cn1)c1cc2sc(N3CCNCC3)nc2s1` [Compound 342], the MIC50 in assay [1] is < 1 µM; in assay [2], 1 to 20 µM (≈ 0.363 to 7.27 µg/mL).
Consider `Cc1nc2cc(NC(=O)c3cc4sc(N5CCN6CCCC6C5)nc4s3)ccc2o1` (stereo not shown) [Compound 323], for which the MIC50 in assay [1] and in assay [2] was < 1 µM each time.

The record behind these values is patent US11279714B2, “Anti-infective compounds” (priority 2014, dated 2022).
